Measured values as given in PMC10092844, “Inhibition profile of trifludimoxazin towards PPO2 target site mutations” (Pest Management Science, 2022).
Residue numbers refer to the chain shown, from its start.

What was measured:
PPO2 R128Q ΔG210 = molecular target: T1, PPO2 R128Q ΔG210 (Amaranthus tuberculatus, UniProt Q0NZW9, DEL210-210/R128Q); assay: biochemical; assay type: biochemical
T1 sequence (Q0NZW9 with tags, fused parts or gaps R128Q/DEL210-210): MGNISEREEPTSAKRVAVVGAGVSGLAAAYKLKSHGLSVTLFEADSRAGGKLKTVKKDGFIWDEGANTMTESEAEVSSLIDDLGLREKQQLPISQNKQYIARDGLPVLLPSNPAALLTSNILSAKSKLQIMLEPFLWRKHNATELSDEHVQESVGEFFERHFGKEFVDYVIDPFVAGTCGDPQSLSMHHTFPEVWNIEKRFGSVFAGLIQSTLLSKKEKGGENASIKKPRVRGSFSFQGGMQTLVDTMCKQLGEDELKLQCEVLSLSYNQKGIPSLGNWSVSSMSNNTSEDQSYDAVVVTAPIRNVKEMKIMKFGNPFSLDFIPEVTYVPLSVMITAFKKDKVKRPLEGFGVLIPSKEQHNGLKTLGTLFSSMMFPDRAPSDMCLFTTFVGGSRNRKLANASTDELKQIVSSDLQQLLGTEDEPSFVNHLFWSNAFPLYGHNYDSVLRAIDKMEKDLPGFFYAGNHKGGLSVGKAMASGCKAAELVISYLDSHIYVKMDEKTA

PPO2 R128L ΔG210 = molecular target: T2, PPO2 R128L ΔG210 (Amaranthus tuberculatus, UniProt Q0NZW9, DEL210-210/R128L); assay: biochemical; assay type: biochemical
T2 sequence (Q0NZW9 with tags, fused parts or gaps R128L/DEL210-210): T1 sequence (Q0NZW9 with tags, fused parts or gaps R128Q/DEL210-210) with Q98L

PPO2 R128N ΔG210 = molecular target: T3, PPO2 R128N ΔG210 (Amaranthus tuberculatus, UniProt Q0NZW9, DEL210-210/R128N); assay: biochemical; assay type: biochemical
T3 sequence (Q0NZW9 with tags, fused parts or gaps R128N/DEL210-210): T1 sequence (Q0NZW9 with tags, fused parts or gaps R128Q/DEL210-210) with Q98N

PPO2 R128T ΔG210 = molecular target: T4, PPO2 R128T ΔG210 (Amaranthus tuberculatus, UniProt Q0NZW9, DEL210-210/R128T); assay type: biochemical
T4 sequence (Q0NZW9 with tags, fused parts or gaps R128T/DEL210-210): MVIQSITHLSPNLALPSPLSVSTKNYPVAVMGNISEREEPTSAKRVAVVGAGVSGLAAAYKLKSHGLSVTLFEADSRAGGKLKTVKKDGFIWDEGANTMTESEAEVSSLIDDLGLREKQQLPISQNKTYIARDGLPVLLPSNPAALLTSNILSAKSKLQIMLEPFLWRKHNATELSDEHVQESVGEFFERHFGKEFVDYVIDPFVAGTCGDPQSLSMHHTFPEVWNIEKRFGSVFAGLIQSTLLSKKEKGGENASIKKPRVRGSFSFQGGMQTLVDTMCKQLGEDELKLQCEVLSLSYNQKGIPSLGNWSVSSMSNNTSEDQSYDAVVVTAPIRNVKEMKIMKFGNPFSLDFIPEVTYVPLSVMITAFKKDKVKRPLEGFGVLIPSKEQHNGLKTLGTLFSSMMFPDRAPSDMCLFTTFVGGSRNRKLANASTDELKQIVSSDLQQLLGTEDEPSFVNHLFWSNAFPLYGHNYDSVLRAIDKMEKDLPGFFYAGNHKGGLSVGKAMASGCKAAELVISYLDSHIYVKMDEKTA

PPO2 R128M ΔG210 = molecular target: T5, PPO2 R128M ΔG210 (Amaranthus tuberculatus, UniProt Q0NZW9, DEL210-210/R128M); assay: biochemical; assay type: biochemical
T5 sequence (Q0NZW9 with tags, fused parts or gaps R128M/DEL210-210): T1 sequence (Q0NZW9 with tags, fused parts or gaps R128Q/DEL210-210) with Q98M

[1] = molecular target: T6, PPO2 R128L ΔG210 in Escherichia coli hemG (Amaranthus tuberculatus, UniProt Q0NZW9, DEL210-210/R128L, cells depend on it); assay type: cell-based; conditions: read-out: IC50 (E. coli hemG growth)
T6 sequence (Q0NZW9 with tags, fused parts or gaps R128L/DEL210-210): T1 sequence (Q0NZW9 with tags, fused parts or gaps R128Q/DEL210-210) with Q98L

[2] = molecular target: T7, PPO2 R128N ΔG210 in Escherichia coli hemG (Amaranthus tuberculatus, UniProt Q0NZW9, DEL210-210/R128N, cells depend on it); assay type: cell-based; conditions: read-out: IC50 (E. coli hemG growth)
T7 sequence (Q0NZW9 with tags, fused parts or gaps R128N/DEL210-210): T1 sequence (Q0NZW9 with tags, fused parts or gaps R128Q/DEL210-210) with Q98N

SMILES	IC50 (PPO2 R128Q ΔG210)	IC50 (PPO2 R128L ΔG210)	IC50 (PPO2 R128N ΔG210)	IC50 (PPO2 R128T ΔG210)	IC50 (PPO2 R128M ΔG210)	IC50 [1]	IC50 [2]	Resistance factor (PPO2 R128Q ΔG210)	Resistance factor (PPO2 R128L ΔG210)	Resistance factor (PPO2 R128N ΔG210)	Resistance factor (PPO2 R128T ΔG210)	Resistance factor (PPO2 R128M ΔG210)
CS(=O)(=O)NC(=O)c1cc(Oc2ccc(C(F)(F)F)cc2Cl)ccc1[N+](=O)[O-] [Fomesafen, fomesafen]	> 10000 nM	> 10000 nM	> 10000 nM	> 10000 nM	> 10000 nM	–	–	–	–	–	–	–
CCOC(=O)C(C)OC(=O)c1cc(Oc2ccc(C(F)(F)F)cc2Cl)ccc1[N+](=O)[O-] (stereo not shown) [Lactofen, lactofen]	1750 nM	649 nM	> 10000 nM	3920 nM	> 10000 nM	> 10000 nM	> 10000 nM	–	–	–	–	–
CC(C)N(C)S(=O)(=O)NC(=O)c1cc(-n2c(=O)cc(C(F)(F)F)n(C)c2=O)c(F)cc1Cl [Saflufenacil, saflufenacil]	> 10000 nM	> 10000 nM	> 10000 nM	> 10000 nM	> 10000 nM	> 10000 nM	> 10000 nM	–	–	–	–	–
C#CCN1C(=O)C(F)(F)Oc2cc(F)c(-n3c(=O)n(C)c(=S)n(C)c3=O)cc21 [Trifludimoxazin, trifludimoxazin]	14.5 nM	5.68 nM	175 nM	74.8 nM	182 nM	39.9 nM	9.87 nM	59	23	714	305	743
